Measurements from patent publication US20250109162A1, “FLEX-NUCLEOSIDE ANALOGUES, NOVEL THERAPEUTICS AGAINST VIRUSES” (UNIVERSITY OF MARYLAND, BALTIMORE COUNTY, priority 2022, published 2025).
Values joined by “and” are separate entries in the source; they are usually repeats but may differ in a detail not shown here. Equal values may be shown once. Read-outs that look alike come from different tables or passages of the source.

Columns and labels:
[1] = test system: Epstein-Barr virus, strain Akata; assay: microbe, parasite or virus in culture; assay type: cell-based; conditions: for EC90: read-out: EC90 - compound concentration that reduces viral replication by 90%
[2] = test system: Dengue Virus 2, strain New Guinea C; assay type: cell-based
Vero cells = conditions: African green monkey
DENV2 = DENV2 IC50 (Table 8); assay type: cell-based, Dengue Virus 2; conditions: Dengue virus
[3] = test system: Ebola Virus, strain Zaire; assay type: cell-based
Akata cells = conditions: human
Enterovirus = assay: microbe, parasite or virus in culture; assay type: cell-based
[4] = test system: Chikungunya Virus, strain S27, ATCC VR-64; assay: microbe, parasite or virus in culture; assay type: cell-based
CHIKV = CHIKV IC50 (Table 8); assay type: cell-based; conditions: Chikungunya virus
HPV11 replicon = assay type: cell-based, Human papillomavirus
[5] = test system: MERS Coronavirus, strain EMC; assay type: cell-based
BK, Gardner = assay: microbe, parasite or virus in culture; assay type: cell-based, BK virus (aka Human polyomavirus 1); conditions: Betapolyomavirus hominis
HHV-6B, Z29 = assay: microbe, parasite or virus in culture; assay type: cell-based, human herpesvirus 6; conditions: Human betaherpesvirus 6, MOLT-3
HBV = HBV (Tavis) EC50 (Table 8); assay type: cell-based; conditions: Hepatitis B virus
[6] = Cytotoxicity in HBV (Tavis) assay (Table 8); assay type: cell-based
EBOV (VP30, Huh) = assay: microbe, parasite or virus in culture; assay type: cell-based, Ebola Virus; conditions: Zaire ebolavirus
[7] = human gammaherpesvirus 4, Akata

Compound: Nc1ccn(C[C@@H](CO)OCP(=O)(O)O)c(=O)n1 [Cidofovir, reference compound]
- EC50 ([1]; read-out: EC50 - compound concentration that reduces viral replication by 50%): 5.94 µM
- EC90 [1]: 73.5 µM

Compound: C#C[C@@]1(O)[C@H](O)[C@@H](CO)O[C@H]1n1ccc2c(N)ncnc21 [NITD008]
- EC50 [2]: 0.36 µM and 0.43 µM
- CC50 (Huh7 cells): > 100 µM

Compound: NC(=O)c1nc(F)c[nH]c1=O [Favipiravir, reference compound]
- CC50 (Vero cells): > 1000 µM

Compound: Cc1ccc(-c2cn([C@@H]3C[C@@H](O)[C@H](CO)O3)c(=O)nc2N)o1 [CHK-08, 4-amino-1-((2S,4R,5S)-4-hydroxy-5-(hydroxymethyl)tetrahydrofuran-2-yl)-5-(5-methylfuran-2-yl)pyrimidin-2(1H)-one]
- IC50 (DENV2): 74 µM

Compound: Nc1nc(=O)n([C@@H]2C[C@@H](O)[C@H](CO)O2)cc1-c1ccco1 [CHK-05, 4-amino-5-(furan-2-yl)-1-((2S,4R,5S)-4-hydroxy-5-(hydroxymethyl)tetrahydrofuran-2-yl)pyrimidin-2(1H)-one]
- EC50 [3]: 18 µM
- CC50 (Vero cells): > 100 µM
- CC50 (Huh7 cells; human): > 100 µM
- CC50 (Akata cells): > 100 µM
- EC50 (Enterovirus): 24 µM
- EC50 [4]: > 42 µM
- EC50 ([4]; Chikungunya virus): > 68 µM
- EC90 [1, 7]: > 100 µM

Compound: Cc1ccc(-c2cn([C@@H]3C[C@@H](O)[C@H](CO)O3)c(=O)[nH]c2=O)s1 [CHK-03, 1-((2S,4R,5S)-4-hydroxy-5-(hydroxymethyl)tetrahydrofuran-2-yl)-5-(5-methylthiophen-2-yl)pyrimidine-2,4(1H,3H)-dione]
- CC50 (Akata cells): > 100 µM

Compound: Nc1nc(=O)n([C@@H]2C[C@@H](O)[C@H](CO)O2)cc1-c1cccs1 [CHK-06, 4-amino-1-((2S,4R,5S)-4-hydroxy-5-(hydroxymethyl)tetrahydrofuran-2-yl)-5-(thiophen-2-yl)pyrimidin-2(1H)-one]
- IC50 (CHIKV): 76.2 µM

Compound: Nc1nc2c(ncn2CCOCP(=O)(O)O)c(=O)[nH]1 [PMEG]
- EC50 (HPV11 replicon): 2 to 9.2 µM

Compound: O=c1nc(NO)ccn1[C@@H]1O[C@H](CO)[C@@H](O)[C@H]1O [EIDD-1931]
- CC50 (HVero 76 cells): >100 µg/mL
- EC50 [5]: 0.036 µg/mL and 0.034 µg/mL
- CC50 (Vero 76 cells): >10 µg/mL

Compound: O=c1[nH]c(=O)n([C@@H]2C[C@@H](O)[C@H](CO)O2)cc1-c1cccs1 [CHK-02, 1-((2S,4R,5S)-4-hydroxy-5-(hydroxymethyl)tetrahydrofuran-2-yl)-5-(thiophen-2-yl)pyrimidine-2,4(1H,3H)-dione]
- CC50 (in vitro): > 150 µM
- EC50 (BK, Gardner): < 0.048 µM
- EC50 (HHV-6B, Z29): 11.1 µM
- EC50 (HBV): < 0.32 µM
- CC50 [6]: > 32 µM
- EC50 (EBOV (VP30, Huh)): 20.6 µM
- EC50 [1, 7]: 10.7 µM
